Here are results for one compound from publication PMC3552485 (ACS Chemical Biology, 2012).

By IC50 is commonly meant the point on the concentration scale where inhibition reaches its midpoint. High values mean lower potency, low ones higher potency.

The test addresses T1, TarO (N-acetylglucosamine-1-phosphate transferase) (Staphylococcus aureus, UniProt Q2G060).
T1 sequence (Q2G060 1-351): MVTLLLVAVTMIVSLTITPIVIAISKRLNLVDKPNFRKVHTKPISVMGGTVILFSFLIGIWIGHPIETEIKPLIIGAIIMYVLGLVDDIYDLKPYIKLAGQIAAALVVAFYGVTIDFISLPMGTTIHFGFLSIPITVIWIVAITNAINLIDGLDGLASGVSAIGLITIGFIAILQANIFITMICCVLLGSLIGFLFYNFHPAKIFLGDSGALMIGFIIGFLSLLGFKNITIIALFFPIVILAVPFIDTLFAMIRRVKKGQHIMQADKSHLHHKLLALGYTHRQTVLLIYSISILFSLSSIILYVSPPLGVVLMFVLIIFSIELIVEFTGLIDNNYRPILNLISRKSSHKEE
In kind it is biochemical.

On to `Clc1ccccc1CN1CCc2sccc2C1` [ticlopidine], for which the IC50 was 238 ± 14 µM.
